Patent US20220062296A1, “COMBINATIONS OF GABAA ALPHA 5 AGONISTS AND SV2A INHIBITORS AND METHODS OF USING IN THE TREATMENT OF COGNITIVE IMPAIRMENT” (AGENEBIO, INC., priority 2020, published 2022)

Tests used:
aMCI subjects = assay: Neuropsychological tests (Buschke Selective Reminding, Benton Visual Retention, Verbal Paired Associates); assay type: in vivo, human; conditions: levetiracetam 125 mg twice a day for two weeks
Description: All participants undergo neuropsychological evaluation at the time of assessment for treatment efficacy (Visits 1 and 2), as well as at the Baseline Visit. The evaluation occurs outside of the scanner and includes the Buschke Selective Reminding Test (Buschke and Fuld, 1974) and the Verbal Paired Associates subtest, the Logical Memory subtest, the Visual Reproduction subtest of the Wechsler Memory Scale-Revised (WMS-R) (Wechsler, 1997), and the Benton Visual Retention Test, as these tasks are particularly sensitive to medial temporal lobe function and early memory problems (Marquis et al., 2002 and Masur et al., 1994). Additionally, subjects are asked to complete tests of more general cognitive function such as tests to assess general mental status, executive function, attention and general naming ability. All neuropsychological tests are administered by a trained research assistant during a 60-minute session. As the three neuropsychological assessments in this study occur within a time period of 8 weeks, different versions of the neuropsychological tests are used to minimize test specific practice effects. Breaks are provided to the subject as needed.

somatostatin in DG hilus = assay: Somatostatin immunohistochemistry, SOM-immunoreactive neurons in DG hilus; assay type: in vivo, rat; conditions: 10 mg/kg/day, four weeks, osmotic mini-pumps; AI-LEV vs AI-VEH p<0.01
Description: Tissue was labeled with anti-SOM antiserum (Santa Cruz Biotechnology; cat. no. SC7819-P) using an established immunoperoxidase protocol and tissue sections were processed concurrently to minimize inter-replication variability (Haberman et al., 2009). The anti-SOM antiserum can detect somatostatin. Briefly, sections were washed in 0.1M phosphate-buffered saline (PBS) to remove cryoprotectant, and endogenous peroxidases were quenched in 0.3% H202 in PBS. After additional PBS washes, sections were blocked in 5% normal horse serum in PBS with 0.3% Triton. Sections were then incubated with primary antibody at a dilution of 1:1600 in PBS containing 0.15% Triton and 3% normal serum for 72 hours at 4° C. with agitation. […] The secondary antibody was detected with avidin-biotin complex (ABC Elite; Vector Laboratories Inc., Burlingame, Calif.) and the avidin-biotin complex was visualized with nickel-enhanced diaminobenzadine (Vector Laboratories Inc., Burlingame, Calif.). […]
Interneuron quantification was performed using a Zeiss Axioplan 2 microscope equipped with a motorized stage. […] Neuron counts were analyzed as the total number of hilar interneurons per hippocampal section for each rat.

[1] = Levetiracetam blood plasma levels in aMCI patients; assay type: in vivo; conditions: human, oral, based on aMCI patients, read-out: effective plasma level range (preferred range goal)
Description: Visit 1: At the end of the first drug/placebo period 2 weeks after the Baseline Visit, the medical, neurological and psychiatric evaluations and cognitive testing are repeated. The subject is also clinically evaluated for suicidal ideation. Blood is drawn again to repeat the standard tests and to determine whether there are any changes related to drug treatment; the subject's blood levetiracetam level is also obtained. All medication dispensed at the Baseline Visit (drug or placebo) is collected and subject compliance with the medication regimen is assessed. The first fMRI session (with cognitive tests) is conducted on the same day, either immediately before or immediately after the clinical assessment. Subjects discontinue first period treatment at this visit.
Visit 2: At approximately 2 weeks after the Washout Visit (i.e., 2 weeks after starting the second treatment period), the medical, neurological and psychiatric evaluations and the cognitive testing are repeated. The subject is clinically evaluated for suicidal ideation. […] All medication dispensed at the Washout Visit is collected and subject compliance with the medication regimen is assessed. […]
Human – in the human studies described in Examples 2 and 3, a subject's levetiracetam blood plasma level was assessed at each visit. […]

[2] = tested on: reelin in Entorhinal Cortex (EC2); assay: Reelin mRNA in situ hybridization in entorhinal cortex (EC2); conditions: 10 mg/kg/day for 28 days; vs AI-VEH p=0.033

For `CC[C@@H](C(N)=O)N1CCCC1=O` [levetiracetam, (2S)-2-(2-oxopyrrolidin-1-yl)butanamide], the “Benton Visual Retention Test performance” value (aMCI subjects) was “fail to rescue performance”, the “Buschke Selective Reminding Test-Delayed Recall performance” value (aMCI subjects) was “fail to rescue performance” and the “Verbal Paired Associates Test-Delayed Recall performance” value (aMCI subjects) was “fail to rescue performance”. For the same molecule, the “Verbal Paired Associates Test-Recognition performance” value (aMCI subjects) was “fail to rescue performance”, the “levels of somatostatin in DG hilus (SOM-immunoreactive hilar neurons)” value (somatostatin in DG hilus) was “restores the levels of somatostatin” and the concentration at 2 weeks [1] was 2900 to 4400 ng/mL. For the same molecule, the “reelin mRNA expression in the lateral entorhinal cortex” value [2] was “significantly increased the expression of reelin”.
